From US20090023799A1, “CRYSTALS OF (2-AMINO-4,5,6,7-TETRAHYDROBENZO[b]THIEN-3-YL)(4-CHLOROPHENYL)METHANONE” (priority 2007, published 2009)
Converted amounts (≈) assume the structure as drawn. Read-outs that look alike come from different tables or passages of the source.

What was measured:
[1] = Approximate solubilities of Form I crystals of T-62 (solvent added until clear solution); type: physicochemical; conditions: RT
Procedure: Solubilities for Form I crystals of T-62 may be estimated based on total solvent used to give a clear solution. A test solvent, either reagent or HPLC (high pressure liquid chromatography) grade, is added in measured aliquots, e.g., 200 or 500 μL, to an accurately weighed sample of T-62 (typically 50 to 90 mg). For some samples, sonication is applied between solvent additions to aid dissolution. Generally, solvent is added until a clear solution is obtained. Actual solubilities may be greater than those shown in Table 7 because of the volume of the solvent portions utilized or a slow rate of dissolution.

[2] = Moisture sorption/desorption analysis; type: physicochemical
Procedure: Moisture sorption/desorption analyses may be performed on a VTI SGA-100 Vapor Sorption Analyzer, or a similar instrument. Sorption and desorption data are collected, e.g., over a range of 5 to 95% relative humidity (RH) at 10% RH intervals under a nitrogen purge. Samples need not to be dried prior to analysis. Equilibrium criteria used for analysis are, e.g., less than 0.01% weight change in 5 min, with a maximum equilibration time of 3 h if the weight criterion is not met. NaCl and PVP may be used as calibration standards.

[3] = Stability to mechanical grinding/milling (ball-milling, XRPD); type: physicochemical; conditions: XRPD analysis of the milled material
Excerpt: (§1) The crystal forms of T-62 are preferably substantially stable to grinding. Stability to grinding may be assessed by measurement of an appropriate physical property before and after grinding. Where the physical property remains substantially unchanged, substantial stability to grinding is indicated. Suitable physico-chemical properties for measurement include a melting point, a X-ray diffraction pattern, an infra red absorption spectrum and a Raman spectrum, particularly the X-ray diffraction pattern. For example, Form I crystal form of T-62 is stable to mechanical milling and cryogrinding as indicated by XRPD analyses of the milled and ground material, respectively.
Stability to mechanical grinding/milling may be tested, e.g., by employing a small stainless steel cylinder. The cylinder is charged with a weighted amount of a crystal form of T-62 and a stainless steel ball is added, the cylinder is capped and the unit is placed on a Retsch Mixer Mill (Type MM 200) for a total of 3 min at a frequency of 30/s (ball-milling).

[4] = Stability to cryogrinding (XRPD); type: physicochemical; conditions: XRPD analysis of the ground material
Excerpt: as §1
Stability to cryogrinding may be tested, e.g., by employing a polycarbonate freezer mill tube. The tube is charged with a weighted amount of a crystal form of T-62 and a stainless steel rod is added, the tube is capped and the unit is shaken in a SPEX Certiprep 6750 Freezer Mill for a total of 0.6 min in liquid nitrogen at a rate of 10 Hz.

[5] = Solid-state conversion of crystal forms on heating or humidity; type: physicochemical
adenosine A1 receptors = target: T1, adenosine A1 receptors (Homo sapiens, UniProt P30542); conditions: U.S. Pat. No. 6,248,774 and No. 6,489,356, cited from earlier work
T1 sequence (P30542 1-326): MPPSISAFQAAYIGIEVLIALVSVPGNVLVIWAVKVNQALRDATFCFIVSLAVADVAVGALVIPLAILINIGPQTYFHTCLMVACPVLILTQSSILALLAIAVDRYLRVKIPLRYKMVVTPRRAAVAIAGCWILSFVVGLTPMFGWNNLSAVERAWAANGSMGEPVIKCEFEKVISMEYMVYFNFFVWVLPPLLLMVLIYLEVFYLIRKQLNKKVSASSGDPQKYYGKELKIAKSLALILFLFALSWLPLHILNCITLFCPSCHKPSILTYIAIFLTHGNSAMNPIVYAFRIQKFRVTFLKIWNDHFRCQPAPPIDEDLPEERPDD

Nc1sc2c(c1C(=O)c1ccc(Cl)cc1)CCCC2 [Form I, (2-amino-4,5,6,7-tetrahydrobenzo[b]thiophen-3-yl)(4-chlorophenyl)methanone]
solubility ([1]; water): practically insoluble | solubility ([1]; aqueous with cosolvent or surfactant or cyclodextrin, thermodynamic from solid, ACN:H2O - 1:1, read-out: Solubility): 8.4 mg/mL (≈ 28.8 mM) | solubility ([1]; organic solvent or mixture, thermodynamic from solid, ACN, read-out: Solubility): 11.1 mg/mL (≈ 38 mM) | solubility ([1]; organic solvent or mixture, thermodynamic from solid, CHCl3, read-out: Solubility): 175 mg/mL (≈ 598 mM) | solubility ([1]; organic solvent or mixture, thermodynamic from solid, EtOAc, read-out: Solubility): 67.8 mg/mL (≈ 232 mM) | solubility ([1]; organic solvent or mixture, thermodynamic from solid, EtOH:H2O - 95:5, read-out: Solubility): 12.8 mg/mL (≈ 43.9 mM) | solubility ([1]; organic solvent or mixture, thermodynamic from solid, EtOH, read-out: Solubility): 16.6 mg/mL (≈ 56.9 mM) | solubility ([1]; organic solvent or mixture, thermodynamic from solid, IPA, read-out: Solubility): 13.1 mg/mL (≈ 44.9 mM) | solubility ([1]; organic solvent or mixture, thermodynamic from solid, MEK, read-out: Solubility): 132 mg/mL (≈ 453 mM) | solubility ([1]; organic solvent or mixture, thermodynamic from solid, MeOH:H2O - 95:5, read-out: Solubility): 8.7 mg/mL (≈ 29.8 mM) | solubility ([1]; organic solvent or mixture, thermodynamic from solid, MeOH, read-out: Solubility): 19.8 mg/mL (≈ 67.9 mM) | solubility ([1]; organic solvent or mixture, thermodynamic from solid, N,N-dimethylformamide (DMF), read-out: Solubility): 129 mg/mL (≈ 441 mM) | solubility ([1]; organic solvent or mixture, thermodynamic from solid, THF, read-out: Solubility): 338 mg/mL (≈ 1160 mM) | solubility ([1]; organic solvent or mixture, thermodynamic from solid, acetone, read-out: Solubility): 59.8 mg/mL (≈ 205 mM) | solubility ([1]; organic solvent or mixture, thermodynamic from solid, cyclohexane, read-out: Solubility): 9.8 mg/mL (≈ 33.6 mM) | solubility ([1]; organic solvent or mixture, thermodynamic from solid, di-n-butyl ether, read-out: Solubility): 21.4 mg/mL (≈ 73.3 mM) | solubility ([1]; organic solvent or mixture, thermodynamic from solid, dichloromethane, read-out: Solubility): 85.3 mg/mL (≈ 292 mM) | solubility ([1]; organic solvent or mixture, thermodynamic from solid, diisopropyl ether, read-out: Solubility): 5.9 mg/mL (≈ 20.2 mM) | solubility ([1]; organic solvent or mixture, thermodynamic from solid, dimethylsulfoxide (DMSO), read-out: Solubility): 183 mg/mL (≈ 626 mM) | solubility ([1]; organic solvent or mixture, thermodynamic from solid, dioxane, read-out: Solubility): 74.9 mg/mL (≈ 257 mM) | solubility ([1]; organic solvent or mixture, thermodynamic from solid, hexanes, read-out: Solubility): 5.6 mg/mL (≈ 19.2 mM) | solubility ([1]; organic solvent or mixture, thermodynamic from solid, nitromethane, read-out: Solubility): 12 mg/mL (≈ 41.1 mM) | solubility ([1]; organic solvent or mixture, thermodynamic from solid, octanol, read-out: Solubility): 19.7 mg/mL (≈ 67.5 mM) | solubility ([1]; organic solvent or mixture, thermodynamic from solid, toluene, read-out: Solubility): 45.7 mg/mL (≈ 157 mM) | Crystal form after moisture sorption/desorption analysis [2]: remains the same | Weight gain or loss in moisture sorption/desorption analysis [2]: no significant weight gain or loss | Hygroscopicity ([2]; moisture sorption/desorption analysis): non-hygroscopic | Stability to mechanical milling [3]: stable | Stability to cryogrinding [4]: stable

Nc1sc2c(c1C(=O)c1ccc(Cl)cc1)CCCC2 [Form II, (2-amino-4,5,6,7-tetrahydrobenzo[b]thiophen-3-yl)(4-chlorophenyl)methanone]
Weight gain in moisture sorption/desorption analysis ([2]; at 95% RH): 0.1%

Nc1sc2c(c1C(=O)c1ccc(Cl)cc1)CCCC2 [Form III, (2-amino-4,5,6,7-tetrahydrobenzo[b]thiophen-3-yl)(4-chlorophenyl)methanone]
Crystal form conversion on heating ([5]; heating to about 104° C. under argon purge): converted to the Form I crystal form | Crystal form conversion under high humidity ([5]; high humidity, solvent is lost): converts to Form I crystal form | Crystal form conversion upon heating ([5]; upon heating): converts to Form I crystals

Nc1sc2c(c1C(=O)c1ccc(Cl)cc1)CCCC2 [Form IV, (2-amino-4,5,6,7-tetrahydrobenzo[b]thiophen-3-yl)(4-chlorophenyl)methanone]
Crystal form conversion on heating ([5]; heating for 2 min at 75° C. in a sealed capillary): converted to the Form IV crystal form

Nc1sc2c(c1C(=O)c1ccc(Cl)cc1)CCCC2 [Form T-62, (2-amino-4,5,6,7-tetrahydrobenzo[b]thiophen-3-yl)(4-chlorophenyl)methanone]
Adverse side effects associated with administration of adenosine (adenosine A1 receptors): devoid of the adverse side effects | Effect on inflammatory and neuropathic pain (adenosine A1 receptors; orally effective): reduce inflammatory and neuropathic pain
